Laboratory results from patent US4053604A (priority 1975, dated 1977).
Several values for one entry are separate records, joined by “and”; a condition that tells them apart may be missing. Equal values may be shown once. Entries after “also recorded” stand apart in the source; their conditions may differ.

Experiments:
[1] = onset, duration of activity and cardiovascular effect (general statement); format: in vivo
[2] = behavioral changes and side effects in cebus monkeys; format: in vivo; conditions: for Behavioral Changes / Side Effects / Duration / Onset / time of onset of side effect (Extrapyramidal): individual monkey
[3] = anesthesia time of rats exposed to halothane anesthesia (recovery of righting reflex); format: in vivo, male albino rats (Sprague-Dawley)
Protocol: The effects of Compound I on halothane-induced anesthesia were assessed using 20 rats for each dose or time interval determination. The experiments were performed on male albino rats (Sprague-Dawley) weighing from 180-220 g. A schematic representation of the apparatus used is illustrated in FIG. 1. The apparatus consists of a rectangular box made of transparent plastic (115 cm long × 28 cm high × 28 cm wide) which is divided into 4 equal chambers by perforated walls. The box rotates around a hollow axis through which gases can be delivered at several proportions from cylinders, through their respective flowmeters. An in-line halothane vaporizer is placed just before the gases reach the chambers. There is an air-tight door to every chamber through which two animals, one treated and one control, are introduced. The gases are delivered at one end of the box and suction is applied to the other end to take up the gases after flowing through the chambers. An in-line water manometer monitors the resulting pressure. This pressure is kept at 0-5 mm H2 O to make certain the gases in the anesthetic chambers remain at atmospheric pressure. The mixture of gases is delivered at a rate of 15 l/min. The inhalation anesthetic gases are delivered for ten minutes prior to the introduction of the animals into the chambers to assure an even distribution in the four chambers. The chambers rotate at four rev/min forcing the animals to tumble and allowing the experimenter to accurately time the loss and recovery of the righting reflex. Induction times are recorded as the time interval elapsed between the beginning of exposure of the animals to the gases and the moment in which they lose their righting reflex.
Groups of control animals (four at a time) were subjected to halothane concentrations ranging from 0.5 to 2.5% in a mixture of 95% O2 -5% CO2, and the induction times thus obtained were used to calculate concentration-reponse curves. Since a certain time elapsed between putting the first and the last rat into their respective chambers, each animal was timed separately with a stopwatch. […] This intermediate concentration of halothane was then used to study the effects of increasing doses of the test compound on the induction times and anesthesia times.
The animals were pretreated by administering the test compounds in dosages ranging from 10 to 500 μg/kg, i.v., at 5, 30, 60, 120, 240 and 360 minutes prior to their exposure to halothane. As soon as all animals lost their righting reflex, the O2 -halothane flow was discontinued and replaced by an equal flow of air. The animals were allowed to remain in the rotating chambers until they regained their righting reflex. Anesthesia times were determined as the interval between the time required to lose and the time to regain the righting reflex. Air flushing of the anesthetic chambers was performed after each determination and the entire procedure repeated with another group of animals for the determination of the effect of a new dose or concentration.
Drugs used in this study include: droperidol, phenoperidine hydrochloride, halothane and Compound I in the form of its hydrochloride salt. Phenoperidine hydrochloride and Compound I (hydrochloride) were dissolved separately in a warm solution of 0.9% sodium chloride. Droperidol was suspended in saline with the aid of a drop ot Tween 80 (Tween 80 is a registered trademark for a complex mixture of polyoxyethylene ethers of mixed partial oleic esters of sorbitol anhydride). Dosages are expressed in this study as the salt form of the compound where applicable. When the experimental protocol called for the concomitant administration of two drugs, these were mixed in the syringe and administered intravenously. The drugs were injected in a volume of 0.1 ml/100 g body weight.
The statistical analysis of the data was performed using Student's […]. […]

[4] = tail-flick test, potentiation of the analgesic activity of phenoperidine; format: in vivo, albino mice
Source text: In the following experiments, phenoperidine and Compound I are used in the form of their hydrochloride salt and droperidol in the form of its free base in the presence of lactic acid for adjustment to pH to 3.4. Results are expressed on the basis of the form of the drug employed (i.e., free base or hydrochloride salt).
Results of such tests using albino mice are illustrated by tables 1,2 and 3 in which the neuroleptic agent, droperidol, is included for comparative purposes.
Potentiation of the Analgesic Activity (ED50) of Phenoperidine,
i.e. 0.5 mg/kg, by varying Doses of Neuroleptic Agents.
*PD50 refers to the dose of the neuroleptic which increased the
analgesic activity (ED50) of phenoperidine by 50%.
Modified Analgesic Activity of Phenoperidine in
the Presence of the Neuroleptic PD50. -
*ED50 refers to the analgesic activity of phenoperidine after
pretreatment with a fixed dose (PD50) of the neuroleptic agents.

[5] = respiratory minute volume and mean arterial blood pressure in rats; format: in vivo; conditions: with phenoperidine, intravenously, doses substantially greater than required for NLA; in words

Q: Which results are given for `CC(C)[C@@]1(O)CCN2C[C@@H]3c4ccccc4CCc4cccc(c43)[C@H]2C1` [Compound 1, (+)(4a,13b-trans)-(3-hydroxy,13b-trans)-3-isopropyl-2,- 3,4,4a,8,9,13b,14-octahydro-lH-benzo[6,7]cyclohepta[1,2,3-de]pyrido[2,1-a]isoquinolin-3-ol]?
A: effect on the cardiovascular system ([1]; alone or in combination with a suitable analgesic agent, in words): little or no effect on the cardiovascular system; onset of action ([1]; in words): quick onset of action; duration of activity ([1]; relatively short duration): up to four; Behavioral Changes ([2]; Compound 1, 5 μg/kg i.v.): None; Side Effects ([2]; Compound 1, 5 μg/kg i.v.): None; Behavioral Changes ([2]; Compound 1, 10 μg/kg i.v.): Passive; also recorded: Huddle; Duration ([2]; Compound 1, 10 μg/kg i.v.): 3 h and > 4 h and 2 h; Onset ([2]; Compound 1, 10 μg/kg i.v.): 30 min and 20 min and 15 min and 60 min; Side Effects ([2]; Compound 1, 10 μg/kg i.v.): None; Behavioral Changes ([2]; Compound 1, 20 μg/kg i.v.): Passive-Huddle; Duration ([2]; Compound 1, 20 μg/kg i.v.): 4 h and > 5 h and 3 h; Onset ([2]; Compound 1, 20 μg/kg i.v.): 20 min and 15 min; Side Effects ([2]; Compound 1, 20 μg/kg i.v.): None; Behavioral Changes ([2]; Compound 1, 50 μg/kg i.v.): Huddle; Duration ([2]; Compound 1, 50 μg/kg i.v.): > 4 h; Onset ([2]; Compound 1, 50 μg/kg i.v.): 20 min and 10 min; Side Effects ([2]; Compound 1, 50 μg/kg i.v.): Extrapyramidal and None; time of onset of side effect (Extrapyramidal) ([2]; Compound 1, 50 μg/kg i.v.): 30 min and 40 min; Behavioral Changes ([2]; Compound 1, 100 μg/kg i.v.): Huddle; Duration ([2]; Compound 1, 100 μg/kg i.v.): > 24 h; Onset ([2]; Compound 1, 100 μg/kg i.v.): 10 min and 5 min; Side Effects ([2]; Compound 1, 100 μg/kg i.v.): Extrapyramidal; time of onset of side effect (Extrapyramidal) ([2]; Compound 1, 100 μg/kg i.v.): 15 min and 10 min; doses at which signs of excitomotor agitation (extrapyramidal excitation) were observed ([2]; i.v.): 0.05 to 0.1 mg/kg; eliciting behavioral changes ([2]; in words): effective in eliciting behavioral changes at very small doses; Anesthesia time, treated ([3]; 10 μg/kg i.v., 5 min before 0.75% halothane): 3.67 min; Anesthesia time, treated ([3]; 10 μg/kg i.v., 5 min before 1.0% halothane): 3.16 min; Anesthesia time, treated ([3]; 10 μg/kg i.v., 5 min before 1.5% halothane): 3.84 min; Anesthesia time, treated ([3]; 10 μg/kg i.v., 5 min before 2.0% halothane): 4.68 min; Anesthesia time, treated ([3]; 10 μg/kg i.v., 5 min before 2.5% halothane): 5.42 min; Anesthesia time, treated ([3]; 25 μg/kg i.v., 5 min before 0.75% halothane): 3.78 min; Anesthesia time, treated ([3]; 25 μg/kg i.v., 5 min before 1.0% halothane): 3.62 min; Anesthesia time, treated ([3]; 25 μg/kg i.v., 5 min before 1.5% halothane): 4.61 min; Anesthesia time, treated ([3]; 25 μg/kg i.v., 5 min before 2.0% halothane): 5.09 min; Anesthesia time, treated ([3]; 25 μg/kg i.v., 5 min before 2.5% halothane): 5.26 min; Anesthesia time, treated ([3]; 50 μg/kg i.v., 5 min before 0.75% halothane): 5.16 min; Anesthesia time, treated ([3]; 50 μg/kg i.v., 5 min before 1.0% halothane): 4.67 min; Anesthesia time, treated ([3]; 50 μg/kg i.v., 5 min before 1.5% halothane): 4.59 min; Anesthesia time, treated ([3]; 50 μg/kg i.v., 5 min before 2.0% halothane): 4.49 min; Anesthesia time, treated ([3]; 50 μg/kg i.v., 5 min before 2.5% halothane): 4.96 min; Anesthesia time, treated ([3]; 100 μg/kg i.v., 5 min before 0.75% halothane): 6.33 min; Anesthesia time, treated ([3]; 100 μg/kg i.v., 5 min before 1.0% halothane): 5.34 min; Anesthesia time, treated ([3]; 100 μg/kg i.v., 5 min before 1.5% halothane): 4.79 min; Anesthesia time, treated ([3]; 100 μg/kg i.v., 5 min before 2.0% halothane): 5.49 min; Anesthesia time, treated ([3]; 100 μg/kg i.v., 5 min before 2.5% halothane): 5.62 min; Anesthesia time, treated ([3]; 200 μg/kg i.v., 5 min before 0.75% halothane): 6.54 min; Anesthesia time, treated ([3]; 200 μg/kg i.v., 5 min before 1.0% halothane): 5.37 min; Anesthesia time, treated ([3]; 200 μg/kg i.v., 5 min before 1.5% halothane): 4.94 min; Anesthesia time, treated ([3]; 200 μg/kg i.v., 5 min before 2.0% halothane): 5.33 min; Anesthesia time, treated ([3]; 200 μg/kg i.v., 5 min before 2.5% halothane): 5.89 min; Anesthesia time, treated ([3]; 250 μg/kg i.v., 5 min before 0.75% halothane): 6.26 min; Anesthesia time, treated ([3]; 250 μg/kg i.v., 5 min before 1.0% halothane): 5.81 min; Anesthesia time, treated ([3]; 250 μg/kg i.v., 5 min before 1.5% halothane): 5.52 min; Anesthesia time, treated ([3]; 250 μg/kg i.v., 5 min before 2.0% halothane): 5.92 min; Anesthesia time, treated ([3]; 250 μg/kg i.v., 5 min before 2.5% halothane): 6.37 min; Anesthesia time, treated ([3]; 500 μg/kg i.v., 5 min before 1.0% halothane): 5.69 min; increase of anesthesia time ([3]; five minutes after i.v. administration, 1% halothane): approximately 70%; effect on anesthesia time ([3]; halothane, in words): increased considerably; duration of anesthesia effect with added analgesic ([3]; plus 25 μg/kg i.v. phenoperidine hydrochloride, 1% halothane (FIG. 3), in words): potentiates the duration of anesthesia effect; relative potentiating activity, Compound I versus droperidol ([4]; in words): equiactive; enhancement of analgesic activity of phenoperidine by concomitant administration ([4]; in words, listed as Compound I): well defined potentiating effect on analgesic agents; also recorded: significantly enhanced; PD50 of Neuroleptic Agent (dose which increased the analgesic activity (ED50) of phenoperidine by 50%) ([4]; mouse, in vivo, ip): 0.56 ± 0.06 mg/kg; effect on respiratory depression caused by analgesic agents [5]: only slightly changed
